Results reported in patent publication US12226455B2, “Medical composition for treating cardiac wasting and cachexia” (RELAXERA Pharmazeutische GmbH & Co. KG, priority 2019, dated 2025).
Marks after values point to notes of the source that are not given here.

How the values were obtained:
[1] = tested on: patients with advanced cancer in the hospice setting; experiment: Level of dyspnea relative to baseline on a seven-level Likert scale (clinical study); assay type: in vivo, human; conditions: n=20
Description: (§1) 30 patients with advanced cancer in the hospice setting are included randomized and double-blind in a clinical study to a 10-day continuous sc. or iv. infusion of either synthetic human relaxin-2 (25 micrograms/kg body weight/day) (n=20) or placebo (n=10). The following exploratory clinical end-points are assessed at baseline and during treatment (day 3 and day 10): • 1. Patients are asked to report their current level of both dyspnea and general wellbeing relative to baseline using seven-level Likert scales. • 2. In the context of this study, ability of self-care is defined as ability to perform the measures of personal daily hygiene (washing, tooth-brushing) without help. • 3. Congestion is assessed as percentage of patients showing ankle edema or rales upon auscultation. • 4. Plasma levels of NT-proBNP (N-terminal fragment of pro-brain natriuretic peptide), a biomarker of cardiac decompensation, are determined. • 5. The four-meter gait speed (4MGS) is measured.

[2] = tested on: patients with advanced cancer in the hospice setting; experiment: Ability of self-care (personal daily hygiene without help), yes-or-no level (clinical study); assay type: in vivo, human; conditions: n=20
Description: as §1

[3] = tested on: patients with advanced cancer in the hospice setting; experiment: Level of general wellbeing relative to baseline on a seven-level Likert scale (clinical study); assay type: in vivo, human; conditions: 25 micrograms/kg body weight/day, n=20
Description: as §1

[4] = tested on: patients with advanced cancer in the hospice setting; experiment: Congestion: ankle edema or rales upon auscultation, four-level scale (clinical study); assay type: in vivo, human; conditions: n=20
Description: as §1

NT-proBNP = experiment: Plasma levels of NT-proBNP, biomarker of cardiac decompensation (clinical study); assay type: in vivo, human; conditions: n=20; for Plasma NT-proBNP, median: 25 micrograms/kg body weight/day
Description: as §1

[5] = tested on: patients with advanced cancer in the hospice setting; experiment: Four-meter gait speed (4MGS) (clinical study); assay type: in vivo, human; conditions: n=20
Description: as §1

[6] = tested on: hospice patients with advanced, incurable cancer; experiment: Overall conclusion of the 10-day clinical study in hospice patients; assay type: in vivo, human; conditions: continuous treatment for 10 days
Description: as §1

[7] = continuous subcutaneous infusion over 24 weeks; cited from earlier work
[8] = Day 3, 25 micrograms/kg body weight/day continuous sc. or iv. infusion
[9] = Day 3, 25 micrograms/kg body weight/day
[10] = Day 10, 25 micrograms/kg body weight/day

## human relaxin-2
[1]; [8]
  Level of dyspnea: markedly or moderately improved, absolute number of patients: 8
  Level of dyspnea: markedly or moderately improved, percentage of patients: (40)^# %
[1]; [9]
  Level of dyspnea: markedly or moderately worsened, absolute number of patients: 1
  Level of dyspnea: markedly or moderately worsened, percentage of patients: (5)^# %
[1]; [10]
  Level of dyspnea: markedly or moderately improved, absolute number of patients: 12
  Level of dyspnea: markedly or moderately improved, percentage of patients: (60)^# %
  Level of dyspnea: markedly or moderately worsened, absolute number of patients: 1
  Level of dyspnea: markedly or moderately worsened, percentage of patients: (5)^# %
[2]; Baseline
  Ability of self-care, absolute number of patients: 5
  Ability of self-care, percentage of patients: 25%
[2]; [9]
  Ability of self-care, absolute number of patients: 7
  Ability of self-care, percentage of patients: 35%
[2]; [10]
  Ability of self-care, absolute number of patients: 17
  Ability of self-care, percentage of patients: (85)* %
[3]; Day 3
  Level of general wellbeing: markedly or moderately improved, absolute number of patients: 9
  Level of general wellbeing: markedly or moderately improved, percentage of patients: (45)# %
  Level of general wellbeing: markedly or moderately worsened, absolute number of patients: 2
  Level of general wellbeing: markedly or moderately worsened, percentage of patients: (10)# %
[3]; Day 10
  Level of general wellbeing: markedly or moderately improved, absolute number of patients: 11
  Level of general wellbeing: markedly or moderately improved, percentage of patients: (55)# %
  Level of general wellbeing: markedly or moderately worsened, absolute number of patients: 1
  Level of general wellbeing: markedly or moderately worsened, percentage of patients: 5%
[4]; Baseline
  Congestion: moderate or severe edema, absolute number of patients: 15
  Congestion: moderate or severe edema, percentage of patients: (75) %
  Congestion: moderate or severe rales, absolute number of patients: 16
  Congestion: moderate or severe rales, percentage of patients: (80) %
[4]; [9]
  Congestion: moderate or severe edema, absolute number of patients: 10
  Congestion: moderate or severe edema, percentage of patients: (50) %
  Congestion: moderate or severe rales, absolute number of patients: 8
  Congestion: moderate or severe rales, percentage of patients: (40)^# %
[4]; [10]
  Congestion: moderate or severe edema, absolute number of patients: 6
  Congestion: moderate or severe edema, percentage of patients: (30)^# %
  Congestion: moderate or severe rales, absolute number of patients: 5
  Congestion: moderate or severe rales, percentage of patients: (25)^# %
NT-proBNP; Baseline
  Plasma NT-proBNP, median (IQR): 3438 (597-4175) pg/ml
NT-proBNP; Day 3
  Plasma NT-proBNP, median: 1813 pg/mL
NT-proBNP; Day 10
  Plasma NT-proBNP, median: 778 pg/mL
[5]; Baseline
  Four-meter gait speed, median: 0.56 m/s
  Unable to walk 4 m, % of patients: 35%
  Unable to walk 4 m, absolute number of patients: 7
[5]; [9]
  Four-meter gait speed, median: 0.66 m/s
  Unable to walk 4 m, % of patients: 25%
  Unable to walk 4 m, absolute number of patients: 5
[5]; [10]
  Four-meter gait speed, median: 0.86* m/s
  Unable to walk 4 m, % of patients: (15)^# %
  Unable to walk 4 m, absolute number of patients: 3
[6]
  Clinical signs of cardiac decompensation (congestion, dyspnea, circulating NT-proBNP): ameliorates clinical signs of cardiac decompensation
  Clinical status of hospice patients: markedly improves the clinical status
[7]
  Physiological changes under relaxin infusion: sustained physiological changes which closely mimicked those seen in human pregnancy
